Several values for one entry are separate records, joined by “and”; a condition that tells them apart may be missing. Identical values can stand only once. Like-named read-outs stand apart in the source and are kept apart here. Peptide text beside a SMILES is read from it.
Legend:
Type in all cases: biochemical
[1] = tested on: V. parvula
Description: (§1) The enzyme activity was measured by the chromogenic properties of N-CBz-glycyl-glycyl-L-arginine-β-naphthylamide which upon hydrolysis gives a visible color. The aminopeptidase activities listed in the table reflect the nanomoles of β-naphthylamine liberated after 60 minutes under the conditions described below.
(§2) After mixing, the solution is incubated for 1 hour at 37° C. and then 0.4 ml of a solution of stabilized diazonium salt, Fast Garnet GBC (0.5 mg/ml) in a 1M acetic acid buffer (pH 4.2), containing 10% Tween 20 was added to the mixture. After standing for 15 minutes at room temperature, the color reaction can be read manually by comparison with standard solutions or the absorbancy can be determined using a spectrophotometer at 525 nm. The reaction mixture without enzyme solution is used as a control.
(§3) The enzyme activity and the aminopeptidase activities were determined in the manner described above in regard to Table I.

[2] = tested on: S. sanguis
Description: as §1, §2, §3

[3] = tested on: A. viscosus
Description: as §1, §2, §3

[4] = tested on: Eikenella corrodens
Description: as §1, §2, §3

[5] = tested on: "Anaerobic vibrio"
Description: as §1, §2, §3

[6] = tested on: Veillonella sp.
Description: as §1, §2, §3

[7] = tested on: Campylobacter sputorum
Description: as §1, §2, §3

[8] = tested on: S. mutans
Description: as §1, §2, §3

[9] = tested on: Fusobacterium nucleatum
Description: as §1, §2, §3

[10] = tested on: A. seminis
Description: as §1, §2, §3

[11] = tested on: Haemophilus aphrophilus; assay: Aminopeptidase activity on β-naphthylamide substrates
Description: as §1, §2, §3

[12] = tested on: F. periodonticum; assay: as above
Description: as §1, §2, §3

[13] = tested on: A. suis; assay: as above
Description: as §1, §2, §3

[14] = tested on: L. fermentum; assay: as above
Description: as §1, §2, §3

[15] = tested on: Lactobacillus casei; assay: as above
Description: as §1, §2, §3

[16] = tested on: Veillonella alcalesens; assay: as above
Description: as §1, §2, §3

[17] = tested on: A. equuli; assay: as above
Description: as §1, §2, §3

[18] = tested on: Capnocytophaga gingivalis
Description: as §1, §2

[19] = tested on: C. ochracea
Description: as §1, §2

[20] = tested on: Capnocytophaga sp.
Description: as §1, §2

[21] = tested on: B. levii
Description: as §1, §2

[22] = tested on: B. mel. ss. intermedius
Description: as §1, §2

[23] = tested on: B. loescheii
Description: as §1, §2

[24] = tested on: B. melaninogenicus; assay: Aminopeptidase activity on β-naphthylamide substrates
Description: as §1, §2

[25] = tested on: B. denticola; assay: as above
Description: as §1, §2

[26] = tested on: B. intermedius; assay: as above
Description: as §1, §2

[27] = tested on: B. corporis; assay: as above
Description: as §1, §2

[28] = tested on: C. sputigena; assay: as above
Description: as §1, §2

NCCCC[C@H](N)C(=O)N1CCC[C@H]1C(=O)O [Lys-Pro, Lysyl-proline] (H-Lys-Pro-OH)
Aminopeptidase activity [1]: 0 | Aminopeptidase activity [2]: 5 and 4 | Aminopeptidase activity [3]: 5 and 7 | Aminopeptidase activity [4]: 0 | Aminopeptidase activity [5]: 3 | Aminopeptidase activity [6]: 1 | Aminopeptidase activity [7]: 3 | Aminopeptidase activity [8]: 14 | Aminopeptidase activity [9]: 2 and 1 | Aminopeptidase activity ([9]; strain D31A-24, β-naphthylamine liberated after 60 minutes, 37° C.): 2 nmol | Aminopeptidase activity [10]: 0 | Aminopeptidase activity [11]: 0 | Aminopeptidase activity [12]: 1 | Aminopeptidase activity [13]: 0 | Aminopeptidase activity [14]: 0 | Aminopeptidase activity [15]: 0 | Aminopeptidase activity [16]: 1 | Aminopeptidase activity [17]: 0 | Aminopeptidase activity [18]: 176 | Aminopeptidase activity [19]: 108 | Aminopeptidase activity [20]: 35 | Aminopeptidase activity [21]: 51 and 54 | Aminopeptidase activity [22]: 54 and 75 and 69 | Aminopeptidase activity [23]: 81 and 89 | Aminopeptidase activity [24]: 70 | Aminopeptidase activity [25]: 86 | Aminopeptidase activity [26]: 63 | Aminopeptidase activity [27]: 75 | Aminopeptidase activity [28]: 86

Reference: patent US4994376A, “Detection of bacteroides gingivalis” (priority 1987, dated 1991)
